# Data from patent US9084766B2, “Compounds and compositions for targeting cancer stem cells” (Boston Biomedical, Inc., priority 2010, dated 2015).
# “Also recorded” adds a separate entry of the source.
# Assays:
# PMBCs = assay: IC50 versus treatment time, PMBCs; format: cell-based; details: normal cells PMBCs
# Protocol: (§1) The studies described herein discovered counter-intuitively that cancer cells and cancer stem cells requires much shorter exposure than normal cells to be killed by Compound 1. Normal cells can tolerate up to 24 hours of exposure to Compound 1. Furthermore, the studies here discovered that normal cells can recover after a short period of no-drug exposure, while cancer cells cannot recover once they are exposed to a certain concentration of the Compound 1 for at least 2 hours. Based on these studies, a special pharmacokinetic exposure [termed selective pharmacokinetic profile (SPP), or preferred pharmacokinetic profile (PPP), which is used interchangeably in this publication] was designed for Compound 1 using the data shown below in Table 14 for achieving selective antitumor activity in patients (FIG. 24).
# [1] = Phase I clinical trial: safety and adverse events
# Protocol: A cycle consists of twice-daily oral administration of the compound for 4 weeks. Cycles were repeated every 4 weeks (28 days) until progression of disease, unacceptable toxicity, or another discontinuation criterion is met. The dose escalation trial was conducted as open label and multicenter trial. A modified Simon accelerated titration scheme was used for dose escalation.
# The primary objective of the trial was to determine the safety, tolerability, and recommended phase II dose (RP2D). The secondary objectives of the trial were to determine the pharmacokinetic profile of the compound, pharmacodynamics of the compound, and preliminary antitumor activity of the compound.
# The inclusion criteria included histologically or cytologically confirmed solid tumor that is metastatic, unresectable, or recurrent; ≧18 years of age; Measurable disease by RECIST; and Karnofsky≧70%. The exclusion criteria included chemotherapy, radiotherapy, immunotherapy or investigational agent within 4 weeks of first dose; surgery within 4 weeks of first dose; and known brain metastases.
# CD34+ BM Myeloid = assay: IC50 versus treatment time, CD34+ BM Myeloid; format: cell-based; details: normal cells CD34+ BM Myeloid, treatment time 12-24 h
# Protocol: as §1
# [2] = Compound concentration in patient urine; format: in vivo, human
# [3] = tested on: cancer cells and normal cells; details: Hirai et al. 1999; Takano et al. 2009; previous studies; cited from earlier work
# HT29 = assay: IC50 versus treatment time, HT29; format: cell-based; details: HT29 cancer cells
# Protocol: as §1
# [4] = previous studies; cited from earlier work
# [5] = Phase I patients, 20-2000 mg/day oral
# [6] = Phase I, dose escalated from 20 mg to 2000 mg/day
structure (smiles),measurement,setting,value
"CC(=O)c1cc2c(o1)C(=O)c1ccccc1C2=O [Compound 1, 2-acetyl-4H,9H-naphtho[2,3-b]furan-4,9-dione]",IC50,PMBCs; treatment time 12-24 h,14000 nM
same,IC50,PMBCs; treatment time 72 h,3000 nM
same,tolerability in humans,[1]; 20 mg QD,good tolerability
same,tolerability in humans,[1]; 500 mg TID,good tolerability
same,"Anorexia, Any Grade, # of Events",[1]; [5],4
same,"Anorexia, Any Grade, % of Total",[1]; [5],4.9%
same,"Anorexia, Grade 1, # of Events",[1]; [5],3
same,"Anorexia, Grade 1, % of Total",[1]; [5],3.7%
same,"Anorexia, Grade 2, # of Events",[1]; [5],1
same,"Anorexia, Grade 2, % of Total",[1]; [5],1.2%
same,"Anorexia, Grade 3, # of Events",[1]; [5],0
same,"Anorexia, Grade 3, % of Total",[1]; [5],0.0%
same,"Diarrhea, Any Grade, # of Events",[1]; [5],23
same,"Diarrhea, Any Grade, % of Total",[1]; [5],28.4%
same,"Diarrhea, Grade 1, # of Events",[1]; [5],20
same,"Diarrhea, Grade 1, % of Total",[1]; [5],24.7%
same,"Diarrhea, Grade 2, # of Events",[1]; [5],2
same,"Diarrhea, Grade 2, % of Total",[1]; [5],2.5%
same,"Diarrhea, Grade 3, # of Events",[1]; [5],2
same,"Diarrhea, Grade 3, % of Total",[1]; [5],2.5%
same,"Dysgusia, Any Grade, # of Events",[1]; [5],3
same,"Dysgusia, Any Grade, % of Total",[1]; [5],3.7%
same,"Dysgusia, Grade 1, # of Events",[1]; [5],3
same,"Dysgusia, Grade 1, % of Total",[1]; [5],3.7%
same,"Dysgusia, Grade 2, # of Events",[1]; [5],0
same,"Dysgusia, Grade 2, % of Total",[1]; [5],0.0%
same,"Dysgusia, Grade 3, # of Events",[1]; [5],0
same,"Dysgusia, Grade 3, % of Total",[1]; [5],0.0%
same,"Fatigue, Any Grade, # of Events",[1]; [5],4
same,"Fatigue, Any Grade, % of Total",[1]; [5],4.9%
same,"Fatigue, Grade 1, # of Events",[1]; [5],1
same,"Fatigue, Grade 1, % of Total",[1]; [5],1.2%
same,"Fatigue, Grade 2, # of Events",[1]; [5],2
same,"Fatigue, Grade 2, % of Total",[1]; [5],2.5%
same,"Fatigue, Grade 3, # of Events",[1]; [5],1
same,"Fatigue, Grade 3, % of Total",[1]; [5],1.2%
same,"Fever, Any Grade, # of Events",[1]; [5],2
same,"Fever, Any Grade, % of Total",[1]; [5],2.5%
same,"Fever, Grade 1, # of Events",[1]; [5],1
same,"Fever, Grade 1, % of Total",[1]; [5],1.2%
same,"Fever, Grade 2, # of Events",[1]; [5],1
same,"Fever, Grade 2, % of Total",[1]; [5],1.2%
same,"Fever, Grade 3, # of Events",[1]; [5],0
same,"Fever, Grade 3, % of Total",[1]; [5],0.0%
same,"Loose stools, Any Grade, # of Events",[1]; [5],2
same,"Loose stools, Any Grade, % of Total",[1]; [5],2.5%
same,"Loose stools, Grade 1, # of Events",[1]; [5],2
same,"Loose stools, Grade 1, % of Total",[1]; [5],2.5%
same,"Loose stools, Grade 2, # of Events",[1]; [5],0
same,"Loose stools, Grade 2, % of Total",[1]; [5],0.0%
same,"Loose stools, Grade 3, # of Events",[1]; [5],0
same,"Loose stools, Grade 3, % of Total",[1]; [5],0.0%
same,"Nausea, Any Grade, # of Events",[1]; [5],10
same,"Nausea, Any Grade, % of Total",[1]; [5],12.3%
same,"Nausea, Grade 1, # of Events",[1]; [5],8
same,"Nausea, Grade 1, % of Total",[1]; [5],9.9%
same,"Nausea, Grade 2, # of Events",[1]; [5],2
same,"Nausea, Grade 2, % of Total",[1]; [5],2.5%
same,"Nausea, Grade 3, # of Events",[1]; [5],0
same,"Nausea, Grade 3, % of Total",[1]; [5],0.0%
same,"Skin Rash, Any Grade, # of Events",[1]; [5],2
same,"Skin Rash, Any Grade, % of Total",[1]; [5],2.5%
same,"Skin Rash, Grade 1, # of Events",[1]; [5],2
same,"Skin Rash, Grade 1, % of Total",[1]; [5],2.5%
same,"Skin Rash, Grade 2, # of Events",[1]; [5],0
same,"Skin Rash, Grade 2, % of Total",[1]; [5],0.0%
same,"Skin Rash, Grade 3, # of Events",[1]; [5],0
same,"Skin Rash, Grade 3, % of Total",[1]; [5],0.0%
same,"Urine Color Change, Any Grade, # of Events",[1]; [5],2
same,"Urine Color Change, Any Grade, % of Total",[1]; [5],2.5%
same,"Urine Color Change, Grade 1, # of Events",[1]; [5],2
same,"Urine Color Change, Grade 1, % of Total",[1]; [5],2.5%
same,"Urine Color Change, Grade 2, # of Events",[1]; [5],0
same,"Urine Color Change, Grade 2, % of Total",[1]; [5],0.0%
same,"Urine Color Change, Grade 3, # of Events",[1]; [5],0
same,"Urine Color Change, Grade 3, % of Total",[1]; [5],0.0%
same,"Vomiting, Any Grade, # of Events",[1]; [5],14
same,"Vomiting, Any Grade, % of Total",[1]; [5],17.3%
same,"Vomiting, Grade 1, # of Events",[1]; [5],13
same,"Vomiting, Grade 1, % of Total",[1]; [5],16.0%
same,"Vomiting, Grade 2, # of Events",[1]; [5],1
same,"Vomiting, Grade 2, % of Total",[1]; [5],1.2%
same,"Vomiting, Grade 3, # of Events",[1]; [5],0
same,"Vomiting, Grade 3, % of Total",[1]; [5],0.0%
same,"abdominal cramps, Any Grade, # of Events",[1]; [5],6
same,"abdominal cramps, Any Grade, % of Total",[1]; [5],7.4%
same,"abdominal cramps, Grade 1, # of Events",[1]; [5],5
same,"abdominal cramps, Grade 1, % of Total",[1]; [5],6.2%
same,"abdominal cramps, Grade 2, # of Events",[1]; [5],1
same,"abdominal cramps, Grade 2, % of Total",[1]; [5],1.2%
same,"abdominal cramps, Grade 3, # of Events",[1]; [5],0
same,"abdominal cramps, Grade 3, % of Total",[1]; [5],0.0%
same,"decreased appetite, Any Grade, # of Events",[1]; [5],2
same,"decreased appetite, Any Grade, % of Total",[1]; [5],2.5%
same,"decreased appetite, Grade 1, # of Events",[1]; [5],1
same,"decreased appetite, Grade 1, % of Total",[1]; [5],1.2%
same,"decreased appetite, Grade 2, # of Events",[1]; [5],1
same,"decreased appetite, Grade 2, % of Total",[1]; [5],1.2%
same,"decreased appetite, Grade 3, # of Events",[1]; [5],0
same,"decreased appetite, Grade 3, % of Total",[1]; [5],0.0%
same,"dizzyness, Any Grade, # of Events",[1]; [5],2
same,"dizzyness, Any Grade, % of Total",[1]; [5],2.5%
same,"dizzyness, Grade 1, # of Events",[1]; [5],2
same,"dizzyness, Grade 1, % of Total",[1]; [5],2.5%
same,"dizzyness, Grade 2, # of Events",[1]; [5],0
same,"dizzyness, Grade 2, % of Total",[1]; [5],0.0%
same,"dizzyness, Grade 3, # of Events",[1]; [5],0
same,"dizzyness, Grade 3, % of Total",[1]; [5],0.0%
same,"weakness, Any Grade, # of Events",[1]; [5],5
same,"weakness, Any Grade, % of Total",[1]; [5],6.2%
same,"weakness, Grade 1, # of Events",[1]; [5],2
same,"weakness, Grade 1, % of Total",[1]; [5],2.5%
same,"weakness, Grade 2, # of Events",[1]; [5],3
same,"weakness, Grade 2, % of Total",[1]; [5],3.7%
same,"weakness, Grade 3, # of Events",[1]; [5],0
same,"weakness, Grade 3, % of Total",[1]; [5],0.0%
same,tolerability of dose escalation in patients,"[1]; Phase I, 20 mg to 2000 mg/day",without drug-induced adverse effects; also recorded: well tolerated
same,dose-limiting toxicity,[1]; [6],No dose-limiting toxicity was observed; also recorded: No dose limiting toxicity was observed
same,maximum tolerated dose (MTD),[1]; [6],not reached; also recorded: neither MTD nor RP2D has been reached
same,IC50,CD34+ BM Myeloid,> 30000 nM
same,BBI608 concentration in patient urine,"[2]; patient 7, total daily dose 320 mg, 120-240 min post dose",4.3 µM
same,BBI608 concentration in patient urine,"[2]; patient 7, total daily dose 320 mg, 360-480 min post dose",23.1 µM
same,BBI608 concentration in patient urine,"[2]; patient 8, total daily dose 320 mg, 120-240 min post dose",7.9 µM
same,BBI608 concentration in patient urine,"[2]; patient 8, total daily dose 320 mg, 360-480 min post dose",1.8 µM
same,BBI608 concentration in patient urine,"[2]; patient 9, total daily dose 320 mg, 120-240 min post dose",8.9 µM
same,BBI608 concentration in patient urine,"[2]; patient 9, total daily dose 320 mg, 360-480 min post dose",23.6 µM
same,BBI608 concentration in patient urine,"[2]; patient 10, total daily dose 320 mg, 120-240 min post dose",22.7 µM
same,BBI608 concentration in patient urine,"[2]; patient 10, total daily dose 320 mg, 360-480 min post dose",26.2 µM
same,BBI608 concentration in patient urine,"[2]; patient 11, total daily dose 320 mg, 120-240 min post dose",1.8 µM
same,BBI608 concentration in patient urine,"[2]; patient 11, total daily dose 320 mg, 360-480 min post dose",4.5 µM
same,BBI608 concentration in patient urine,"[2]; patient 12, total daily dose 400 mg, 120-240 min post dose",4.11 µM
same,BBI608 concentration in patient urine,"[2]; patient 12, total daily dose 400 mg, 360-480 min post dose",3.86 µM
same,BBI608 concentration in patient urine,"[2]; patient 14, total daily dose 400 mg, 120-240 min post dose",1.42 µM
same,BBI608 concentration in patient urine,"[2]; patient 14, total daily dose 400 mg, 360-480 min post dose",5 µM
same,BBI608 concentration in patient urine,"[2]; patient 15, total daily dose 600 mg, 120-240 min post dose",3.1 µM
same,BBI608 concentration in patient urine,"[2]; patient 15, total daily dose 600 mg, 360-480 min post dose",10.65 µM
same,BBI608 concentration in patient urine,"[2]; patient 17, total daily dose 600 mg, 120-240 min post dose",1.66 µM
same,BBI608 concentration in patient urine,"[2]; patient 17, total daily dose 600 mg, 360-480 min post dose",45.35 µM
same,BBI608 concentration in patient urine,"[2]; patient 18, total daily dose 600 mg, 120-240 min post dose",2.41 µM
same,BBI608 concentration in patient urine,"[2]; patient 18, total daily dose 600 mg, 360-480 min post dose",6.3 µM
same,BBI608 concentration in patient urine,"[2]; patient 20, total daily dose 800 mg, 120-240 min post dose",6.17 µM
same,BBI608 concentration in patient urine,"[2]; patient 20, total daily dose 800 mg, 360-480 min post dose",118.25 µM
same,BBI608 concentration in patient urine,"[2]; patient 21, total daily dose 800 mg, 120-240 min post dose",0.42 µM
same,BBI608 concentration in patient urine,"[2]; patient 21, total daily dose 800 mg, 360-480 min post dose",7.42 µM
same,BBI608 concentration in patient urine,"[2]; patient 23, total daily dose 800 mg, 120-240 min post dose",2.51 µM
same,BBI608 concentration in patient urine,"[2]; patient 23, total daily dose 800 mg, 360-480 min post dose",11.97 µM
same,toxicity to cancer cells and normal cells,[3],equally toxic to normal and cancer cells; also recorded: equally toxic to cancer cells and normal cells
same,IC50,HT29; treatment time 12-24 h,< 500 nM
same,IC50,"HT29; Homo sapiens, HT-29, treatment time 4-12 h",< 500 nM
same,antitumor activity in animal model,[4],no antitumor activity was observed
